Earlier results on two compounds are cited in patent US20100069397A1, “SEXUAL DYSFUNCTION COMPOUNDS” (Pharmacia AB, priority 2002, published 2010).

Structures are written as SMILES.

For series [1] the following is noted: dose of 1-3 mg, taken 0.5-1 h before sexual activity; per WO 00/40226.
For series [2] the following is noted: free base; per European Patent Application No. 0 960 621.

With `CN[C@@H]1Cc2cccc3[nH]c(=O)n(c23)C1.O=C(O)/C=C\C(=O)O` [(R)-5,6-dihydro-5-(methylamino)-4H-imidazo[4,5-ij]-quinolin-2(1H)-one (Z)-2-butenedioate (1:1)], the “therapeutic effect in sexual dysfunction” value in series [1] is on record as “therapeutically effective”.

`CCCc1nn(C)c2c(=O)[nH]c(-c3cc(S(=O)(=O)N4CCN(C)CC4)ccc3OCC)nc12` [sildenafil]: in series [2], the solubility in water result is “extremely low solubility in water”.
